Measurements taken from ChEMBL document CHEMBL3991601, “The target landscape of clinical kinase drugs” (Science, 2017).
Calls of active or inactive are those of the source. Rule as the data show it, for most assays here: actives have a measured Kd and inactives only a lower limit.

What was measured:
[1] = target: Tyrosine-protein kinase JAK1 (Homo sapiens, UniProt P23458)
[2] = target: Tyrosine-protein kinase ABL1 (Homo sapiens, UniProt P00519)
[3] = target: Mitogen-activated protein kinase 11 (Homo sapiens, UniProt Q15759)
[4] = target: Structural maintenance of chromosomes protein 2 (Homo sapiens, UniProt O95347)
[5] = target: BMP-2-inducible protein kinase (Homo sapiens, UniProt Q9NSY1)
[6] = target: T1, Tyrosine--tRNA ligase, cytoplasmic (Homo sapiens, UniProt P54577)
T1 sequence (P54577 whole entry): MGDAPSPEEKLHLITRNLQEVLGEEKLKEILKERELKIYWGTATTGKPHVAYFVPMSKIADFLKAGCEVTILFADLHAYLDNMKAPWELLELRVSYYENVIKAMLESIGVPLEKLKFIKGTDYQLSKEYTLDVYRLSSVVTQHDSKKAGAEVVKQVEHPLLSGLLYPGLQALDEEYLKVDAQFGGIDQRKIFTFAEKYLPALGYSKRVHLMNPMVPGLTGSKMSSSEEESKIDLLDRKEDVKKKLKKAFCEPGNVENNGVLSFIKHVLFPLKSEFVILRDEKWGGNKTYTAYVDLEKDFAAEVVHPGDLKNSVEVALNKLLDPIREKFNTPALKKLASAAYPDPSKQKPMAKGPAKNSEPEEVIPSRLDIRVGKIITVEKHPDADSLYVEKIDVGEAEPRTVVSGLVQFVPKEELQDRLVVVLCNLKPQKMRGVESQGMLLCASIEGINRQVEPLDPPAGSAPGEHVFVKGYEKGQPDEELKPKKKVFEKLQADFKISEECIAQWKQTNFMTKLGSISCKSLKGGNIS

[7] = target: T2, Serine/threonine-protein kinase TBK1 (Homo sapiens, UniProt Q9UHD2)
T2 sequence (Q9UHD2 whole entry): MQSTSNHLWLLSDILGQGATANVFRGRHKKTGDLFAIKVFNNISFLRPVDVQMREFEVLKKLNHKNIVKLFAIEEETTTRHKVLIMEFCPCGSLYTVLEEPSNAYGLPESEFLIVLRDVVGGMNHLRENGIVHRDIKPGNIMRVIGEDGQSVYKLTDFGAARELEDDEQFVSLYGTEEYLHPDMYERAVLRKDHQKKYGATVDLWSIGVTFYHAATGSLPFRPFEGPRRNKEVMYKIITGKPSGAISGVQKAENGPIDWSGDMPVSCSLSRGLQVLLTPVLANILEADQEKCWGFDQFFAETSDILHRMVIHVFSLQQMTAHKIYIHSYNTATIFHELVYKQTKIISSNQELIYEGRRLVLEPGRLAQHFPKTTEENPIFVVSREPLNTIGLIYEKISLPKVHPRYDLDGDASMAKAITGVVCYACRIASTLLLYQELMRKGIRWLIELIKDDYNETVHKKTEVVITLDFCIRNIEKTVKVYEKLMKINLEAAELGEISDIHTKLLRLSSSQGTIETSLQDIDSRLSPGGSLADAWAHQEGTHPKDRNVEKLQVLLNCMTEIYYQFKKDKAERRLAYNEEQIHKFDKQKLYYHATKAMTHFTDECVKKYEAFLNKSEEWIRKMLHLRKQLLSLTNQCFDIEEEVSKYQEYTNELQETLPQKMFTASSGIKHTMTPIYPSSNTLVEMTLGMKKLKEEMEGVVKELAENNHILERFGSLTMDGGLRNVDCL

[8] = target: T3, MAP kinase-activated protein kinase 5 (Homo sapiens, UniProt Q8IW41)
T3 sequence (Q8IW41 whole entry): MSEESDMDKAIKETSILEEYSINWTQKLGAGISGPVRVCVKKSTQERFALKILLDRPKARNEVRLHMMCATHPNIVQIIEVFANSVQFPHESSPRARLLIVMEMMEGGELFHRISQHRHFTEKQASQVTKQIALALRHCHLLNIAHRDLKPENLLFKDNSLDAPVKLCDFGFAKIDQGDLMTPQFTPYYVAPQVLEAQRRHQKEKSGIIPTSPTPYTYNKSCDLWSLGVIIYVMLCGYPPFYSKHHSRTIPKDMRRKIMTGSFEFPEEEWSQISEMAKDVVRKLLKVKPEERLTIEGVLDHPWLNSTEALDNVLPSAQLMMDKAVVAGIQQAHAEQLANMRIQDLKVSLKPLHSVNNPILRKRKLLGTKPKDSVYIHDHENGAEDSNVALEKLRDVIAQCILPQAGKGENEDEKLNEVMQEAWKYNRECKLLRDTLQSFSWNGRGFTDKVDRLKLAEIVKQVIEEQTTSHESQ

[9] = target: Fibroblast growth factor receptor 1 (Homo sapiens, UniProt P11362)
[10] = target: Tyrosine-protein kinase ABL2 (Homo sapiens, UniProt P42684)
[11] = target: T4, Phosphorylase b kinase gamma catalytic chain, liver/testis isoform (Homo sapiens, UniProt P15735)
T4 sequence (P15735 whole entry): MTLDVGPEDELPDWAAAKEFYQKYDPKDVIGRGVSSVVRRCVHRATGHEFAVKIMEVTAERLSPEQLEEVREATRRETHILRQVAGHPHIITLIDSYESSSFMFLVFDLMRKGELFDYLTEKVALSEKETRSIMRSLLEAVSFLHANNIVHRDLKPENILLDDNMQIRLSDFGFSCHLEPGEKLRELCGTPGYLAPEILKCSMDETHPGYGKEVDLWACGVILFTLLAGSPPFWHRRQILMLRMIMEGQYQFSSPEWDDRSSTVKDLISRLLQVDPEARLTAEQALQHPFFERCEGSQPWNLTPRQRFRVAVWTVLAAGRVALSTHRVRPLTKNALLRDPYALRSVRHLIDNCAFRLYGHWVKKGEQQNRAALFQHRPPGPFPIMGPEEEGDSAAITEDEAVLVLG

[12] = target: AP2-associated protein kinase 1 (Homo sapiens, UniProt Q2M2I8)
Also: in the data inactive means no Kd found up to 30 µM.

Structural maintenance of chromosomes protein 2, sequence (O95347 whole entry): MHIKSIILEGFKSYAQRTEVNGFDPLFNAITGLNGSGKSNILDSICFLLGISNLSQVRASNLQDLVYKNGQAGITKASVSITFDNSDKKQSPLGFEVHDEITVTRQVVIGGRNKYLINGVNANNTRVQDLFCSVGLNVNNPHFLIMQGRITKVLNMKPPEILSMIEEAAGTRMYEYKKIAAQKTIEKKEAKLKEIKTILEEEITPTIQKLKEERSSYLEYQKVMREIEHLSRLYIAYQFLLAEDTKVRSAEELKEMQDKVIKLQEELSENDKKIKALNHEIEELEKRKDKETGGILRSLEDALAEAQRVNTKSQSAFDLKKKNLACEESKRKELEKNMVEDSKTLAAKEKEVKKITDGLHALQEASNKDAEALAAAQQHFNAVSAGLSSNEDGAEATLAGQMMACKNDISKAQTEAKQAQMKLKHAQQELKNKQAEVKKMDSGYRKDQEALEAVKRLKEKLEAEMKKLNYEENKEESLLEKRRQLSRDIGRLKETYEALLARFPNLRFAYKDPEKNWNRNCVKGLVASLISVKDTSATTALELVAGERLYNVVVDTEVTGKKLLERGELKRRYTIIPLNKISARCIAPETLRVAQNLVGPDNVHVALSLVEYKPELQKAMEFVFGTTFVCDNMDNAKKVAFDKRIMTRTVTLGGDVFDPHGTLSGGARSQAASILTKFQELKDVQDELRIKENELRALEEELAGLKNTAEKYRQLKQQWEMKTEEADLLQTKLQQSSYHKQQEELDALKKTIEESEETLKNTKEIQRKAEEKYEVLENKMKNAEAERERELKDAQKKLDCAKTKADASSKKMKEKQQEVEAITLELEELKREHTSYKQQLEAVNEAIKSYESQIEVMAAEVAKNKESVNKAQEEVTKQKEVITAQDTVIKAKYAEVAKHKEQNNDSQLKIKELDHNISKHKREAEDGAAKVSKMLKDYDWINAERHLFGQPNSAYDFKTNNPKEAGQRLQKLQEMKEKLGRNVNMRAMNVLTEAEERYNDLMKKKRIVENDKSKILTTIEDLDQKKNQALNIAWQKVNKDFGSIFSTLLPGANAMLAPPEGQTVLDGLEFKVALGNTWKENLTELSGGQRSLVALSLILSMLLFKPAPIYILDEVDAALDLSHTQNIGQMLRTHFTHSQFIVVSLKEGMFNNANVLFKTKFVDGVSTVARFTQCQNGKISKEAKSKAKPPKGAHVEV
Tyrosine-protein kinase JAK1, sequence (P23458 whole entry): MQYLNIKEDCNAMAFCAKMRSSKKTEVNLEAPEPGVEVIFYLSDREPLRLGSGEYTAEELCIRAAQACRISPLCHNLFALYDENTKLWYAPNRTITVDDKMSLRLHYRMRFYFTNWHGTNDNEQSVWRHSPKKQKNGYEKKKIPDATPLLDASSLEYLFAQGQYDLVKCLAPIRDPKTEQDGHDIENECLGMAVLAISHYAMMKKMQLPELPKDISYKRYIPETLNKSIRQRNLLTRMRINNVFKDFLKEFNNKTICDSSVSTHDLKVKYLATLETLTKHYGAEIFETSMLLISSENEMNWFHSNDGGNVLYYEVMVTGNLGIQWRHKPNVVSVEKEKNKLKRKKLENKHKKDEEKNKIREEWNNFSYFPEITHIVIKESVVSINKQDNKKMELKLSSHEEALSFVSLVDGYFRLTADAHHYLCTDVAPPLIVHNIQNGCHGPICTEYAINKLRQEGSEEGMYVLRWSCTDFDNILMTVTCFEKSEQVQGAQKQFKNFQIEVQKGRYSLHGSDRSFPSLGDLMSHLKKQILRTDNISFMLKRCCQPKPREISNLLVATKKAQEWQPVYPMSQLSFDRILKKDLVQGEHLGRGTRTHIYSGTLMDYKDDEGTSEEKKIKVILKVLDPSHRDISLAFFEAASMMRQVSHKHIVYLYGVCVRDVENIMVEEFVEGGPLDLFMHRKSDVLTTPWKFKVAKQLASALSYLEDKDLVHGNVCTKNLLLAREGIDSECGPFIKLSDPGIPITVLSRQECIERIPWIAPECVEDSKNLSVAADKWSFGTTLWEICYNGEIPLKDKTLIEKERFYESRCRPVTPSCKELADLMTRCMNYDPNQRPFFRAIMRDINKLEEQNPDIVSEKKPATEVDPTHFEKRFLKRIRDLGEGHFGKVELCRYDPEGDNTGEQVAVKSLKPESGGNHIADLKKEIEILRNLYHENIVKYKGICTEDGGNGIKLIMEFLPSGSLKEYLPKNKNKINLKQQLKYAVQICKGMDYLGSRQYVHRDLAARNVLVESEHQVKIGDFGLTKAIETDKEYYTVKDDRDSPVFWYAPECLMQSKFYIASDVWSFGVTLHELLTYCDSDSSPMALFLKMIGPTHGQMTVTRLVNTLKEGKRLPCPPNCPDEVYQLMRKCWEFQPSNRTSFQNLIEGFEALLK
AP2-associated protein kinase 1, sequence (Q2M2I8 whole entry): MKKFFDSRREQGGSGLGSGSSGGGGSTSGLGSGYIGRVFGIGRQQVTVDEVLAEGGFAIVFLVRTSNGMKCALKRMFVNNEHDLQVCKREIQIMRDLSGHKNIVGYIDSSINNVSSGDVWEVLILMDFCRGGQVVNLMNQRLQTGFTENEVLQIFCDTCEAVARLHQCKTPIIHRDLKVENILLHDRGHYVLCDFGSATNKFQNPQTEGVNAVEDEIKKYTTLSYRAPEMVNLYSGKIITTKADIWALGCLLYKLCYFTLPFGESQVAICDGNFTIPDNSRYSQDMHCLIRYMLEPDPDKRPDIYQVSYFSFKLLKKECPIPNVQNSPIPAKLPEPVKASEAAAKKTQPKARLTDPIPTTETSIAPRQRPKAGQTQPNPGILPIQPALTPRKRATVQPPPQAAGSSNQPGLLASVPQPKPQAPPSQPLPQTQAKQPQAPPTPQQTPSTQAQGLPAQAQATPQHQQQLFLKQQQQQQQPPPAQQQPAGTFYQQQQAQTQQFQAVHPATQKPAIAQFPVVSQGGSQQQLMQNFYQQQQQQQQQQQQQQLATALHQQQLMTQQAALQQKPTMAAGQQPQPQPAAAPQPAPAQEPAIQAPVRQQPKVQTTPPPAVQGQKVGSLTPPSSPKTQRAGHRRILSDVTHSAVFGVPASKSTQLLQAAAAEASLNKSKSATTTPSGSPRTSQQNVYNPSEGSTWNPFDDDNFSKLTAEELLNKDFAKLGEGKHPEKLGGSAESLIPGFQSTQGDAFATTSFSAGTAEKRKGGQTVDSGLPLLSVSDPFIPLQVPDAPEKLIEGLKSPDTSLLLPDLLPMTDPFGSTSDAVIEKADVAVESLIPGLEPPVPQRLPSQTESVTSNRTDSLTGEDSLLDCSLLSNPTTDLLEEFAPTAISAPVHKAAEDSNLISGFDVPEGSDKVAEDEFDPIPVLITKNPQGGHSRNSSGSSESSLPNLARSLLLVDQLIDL
Fibroblast growth factor receptor 1, sequence (P11362 whole entry): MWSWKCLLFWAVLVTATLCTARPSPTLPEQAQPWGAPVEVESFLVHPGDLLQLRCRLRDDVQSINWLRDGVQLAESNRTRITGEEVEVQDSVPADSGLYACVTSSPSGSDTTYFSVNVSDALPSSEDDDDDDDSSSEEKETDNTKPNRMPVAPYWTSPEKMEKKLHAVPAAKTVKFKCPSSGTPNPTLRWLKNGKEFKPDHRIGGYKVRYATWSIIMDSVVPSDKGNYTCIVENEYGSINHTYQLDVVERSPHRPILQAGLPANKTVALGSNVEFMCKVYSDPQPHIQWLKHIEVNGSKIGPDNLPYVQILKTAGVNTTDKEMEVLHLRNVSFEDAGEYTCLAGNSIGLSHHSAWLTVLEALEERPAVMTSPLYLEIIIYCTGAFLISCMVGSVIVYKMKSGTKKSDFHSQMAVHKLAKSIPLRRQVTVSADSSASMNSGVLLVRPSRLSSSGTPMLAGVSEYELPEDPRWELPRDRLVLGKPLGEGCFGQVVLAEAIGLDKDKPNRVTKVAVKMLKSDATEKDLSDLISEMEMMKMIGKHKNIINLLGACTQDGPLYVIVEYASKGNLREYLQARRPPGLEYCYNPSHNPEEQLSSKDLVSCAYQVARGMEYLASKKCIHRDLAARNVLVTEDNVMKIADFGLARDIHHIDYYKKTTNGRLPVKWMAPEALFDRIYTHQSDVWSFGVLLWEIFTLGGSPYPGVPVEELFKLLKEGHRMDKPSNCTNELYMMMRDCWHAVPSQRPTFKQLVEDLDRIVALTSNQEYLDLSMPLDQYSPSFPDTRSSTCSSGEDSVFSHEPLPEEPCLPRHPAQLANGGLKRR
Mitogen-activated protein kinase 11, sequence (Q15759 whole entry): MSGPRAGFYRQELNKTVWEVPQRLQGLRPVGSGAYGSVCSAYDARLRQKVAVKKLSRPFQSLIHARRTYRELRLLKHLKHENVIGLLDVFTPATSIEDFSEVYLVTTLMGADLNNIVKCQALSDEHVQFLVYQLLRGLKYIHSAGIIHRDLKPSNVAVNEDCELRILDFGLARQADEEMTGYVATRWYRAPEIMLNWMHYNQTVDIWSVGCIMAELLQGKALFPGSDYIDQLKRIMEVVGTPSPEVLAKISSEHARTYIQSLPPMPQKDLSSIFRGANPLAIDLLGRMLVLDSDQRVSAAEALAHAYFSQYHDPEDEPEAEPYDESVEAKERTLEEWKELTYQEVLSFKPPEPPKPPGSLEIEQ

| SMILES | Kd [1] | Kd [2] | Kd [3] | Kd [4] | Kd [5] | Kd [6] | Kd [7] | Kd [8] | Kd [9] | Kd [10] | Kd [11] | Kd [12] |
| --- | --- | --- | --- | --- | --- | --- | --- | --- | --- | --- | --- | --- |
| Cc1cc(-c2cc(OC(=O)c3ccccc3)ccc2Cl)cc2nnc(Nc3ccc(OCCN4CCCC4)cc3)nc12 [TG100-801] | > 30 µM (inactive) | 10.7 µM (active) | > 30 µM (inactive) | > 30 µM (inactive) | > 30 µM (inactive) | > 30 µM (inactive) | > 30 µM (inactive) | > 30 µM (inactive) | > 30 µM (inactive) | 1.03 µM (active) | > 30 µM (inactive) | > 30 µM (inactive) |
| O=C(NOC[C@H](O)CO)c1ccc(F)c(F)c1Nc1ccc(I)cc1F [MIRDAMETINIB] | > 30 µM (inactive) | > 30 µM (inactive) | > 30 µM (inactive) | > 30 µM (inactive) | > 30 µM (inactive) | > 30 µM (inactive) | > 30 µM (inactive) | > 30 µM (inactive) | > 30 µM (inactive) | > 30 µM (inactive) | > 30 µM (inactive) | > 30 µM (inactive) |
| CC(C)(O)CC(=O)NCCn1ccc2ncnc(Nc3ccc(Oc4cccc(C(F)(F)F)c4)c(Cl)c3)c21 [TAK-285] | > 30 µM (inactive) | > 30 µM (inactive) | > 30 µM (inactive) | > 30 µM (inactive) | > 30 µM (inactive) | > 30 µM (inactive) | > 30 µM (inactive) | > 30 µM (inactive) | > 30 µM (inactive) | > 30 µM (inactive) | > 30 µM (inactive) | > 30 µM (inactive) |
| Cc1cc(C(=O)Nc2cc(Oc3ccc4nc(NC(=O)C5CC5)cn4n3)ccc2C)n(C)n1 [TAK-593] | > 30 µM (inactive) | 0.918 µM (active) | > 30 µM (inactive) | > 30 µM (inactive) | 10.9 µM (active) | > 30 µM (inactive) | > 30 µM (inactive) | > 30 µM (inactive) | > 30 µM (inactive) | 4.06 µM (active) | > 30 µM (inactive) | 2.44 µM (active) |
| NC[C@@](O)(c1ccc(Cl)cc1)c1ccc(-c2cn[nH]c2)cc1 [AT-13148] | > 30 µM (inactive) | > 30 µM (inactive) | > 30 µM (inactive) | > 30 µM (inactive) | > 30 µM (inactive) | > 30 µM (inactive) | > 30 µM (inactive) | > 30 µM (inactive) | > 30 µM (inactive) | > 30 µM (inactive) | > 30 µM (inactive) | > 30 µM (inactive) |
| Cc1c(NC(=O)OC[C@@H]2COCCN2)cn2ncnc(Nc3ccc4c(cnn4Cc4cccc(F)c4)c3)c12 [AC-480] | > 30 µM (inactive) | > 30 µM (inactive) | > 30 µM (inactive) | > 30 µM (inactive) | > 30 µM (inactive) | > 30 µM (inactive) | > 30 µM (inactive) | > 30 µM (inactive) | > 30 µM (inactive) | > 30 µM (inactive) | > 30 µM (inactive) | > 30 µM (inactive) |
| COc1cc(Nc2ncc(F)c(Nc3ccc4c(n3)N(COP(=O)(O)O)C(=O)C(C)(C)O4)n2)cc(OC)c1OC [FOSTAMATINIB] | > 30 µM (inactive) | > 30 µM (inactive) | > 30 µM (inactive) | > 30 µM (inactive) | > 30 µM (inactive) | > 30 µM (inactive) | > 30 µM (inactive) | > 30 µM (inactive) | > 30 µM (inactive) | > 30 µM (inactive) | > 30 µM (inactive) | > 30 µM (inactive) |
| C[C@@H]1COC(Nc2ccc3ncnc(Nc4ccc(OCc5nccs5)c(Cl)c4)c3c2)=N1 [VARLITINIB] | > 30 µM (inactive) | > 30 µM (inactive) | > 30 µM (inactive) | > 30 µM (inactive) | > 30 µM (inactive) | > 30 µM (inactive) | > 30 µM (inactive) | > 30 µM (inactive) | > 30 µM (inactive) | > 30 µM (inactive) | > 30 µM (inactive) | > 30 µM (inactive) |
| COCCN1CCN(Cc2ccc(-c3n[nH]c4c3C(=O)c3c(NC(=O)NN5CCOCC5)cccc3-4)cc2)CC1 [RGB-286638] | 0.139 µM (active) | > 30 µM (inactive) | > 30 µM (inactive) | > 30 µM (inactive) | 0.008 µM (active) | > 30 µM (inactive) | 2.01 µM (active) | > 30 µM (inactive) | > 30 µM (inactive) | > 30 µM (inactive) | > 30 µM (inactive) | 0.022 µM (active) |
| CNC(=O)c1ccc(Nc2ncc(C(F)(F)F)c(NCc3nccnc3N(C)S(C)(=O)=O)n2)cc1 [DEFACTINIB] | > 30 µM (inactive) | > 30 µM (inactive) | > 30 µM (inactive) | > 30 µM (inactive) | > 30 µM (inactive) | > 30 µM (inactive) | > 30 µM (inactive) | > 30 µM (inactive) | > 30 µM (inactive) | > 30 µM (inactive) | > 30 µM (inactive) | > 30 µM (inactive) |
| Cc1ccc(C(=O)Nc2ccc(Oc3cc4cnn(C)c4cc3-c3cn[nH]c3)c(F)c2)c(=O)n1-c1ccc(F)cc1 [MERESTINIB] | > 30 µM (inactive) | > 30 µM (inactive) | > 30 µM (inactive) | > 30 µM (inactive) | > 30 µM (inactive) | > 30 µM (inactive) | > 30 µM (inactive) | > 30 µM (inactive) | > 30 µM (inactive) | > 30 µM (inactive) | > 30 µM (inactive) | > 30 µM (inactive) |
| O=C(O)c1ccc2c(c1)nc(Nc1cccc(Cl)c1)c1ccncc12 [SILMITASERTIB] | > 30 µM (inactive) | > 30 µM (inactive) | > 30 µM (inactive) | > 30 µM (inactive) | > 30 µM (inactive) | > 30 µM (inactive) | > 30 µM (inactive) | > 30 µM (inactive) | > 30 µM (inactive) | > 30 µM (inactive) | 3.5 µM (active) | > 30 µM (inactive) |
| Cc1c(Cn2c(C)nc3c(C(=O)O)cc(N4CCOCC4)cc32)cccc1C(F)(F)F [GSK-2636771] | > 30 µM (inactive) | > 30 µM (inactive) | > 30 µM (inactive) | > 30 µM (inactive) | > 30 µM (inactive) | > 30 µM (inactive) | > 30 µM (inactive) | > 30 µM (inactive) | > 30 µM (inactive) | > 30 µM (inactive) | > 30 µM (inactive) | > 30 µM (inactive) |
